Reference: US9586914B2, “Modulators of C3a receptors” (THE UNIVERSITY OF QUEENSLAND, priority 2011, dated 2017)
Where two headings read alike, the source gives them in different places.

How the values were obtained:
C3aR = target: T1, C3aR (Homo sapiens, UniProt Q16581); test: Calcium mobilization assay in HMDM (agonist/antagonist activity); format: cell-based; details: for IC50: read-out: Antagonist Activity Ca^2+ IC50
T1 construct: peripheral blood mononuclear cells were isolated from buffy coat (obtained from Australian Red Cross Blood Service, Kelvin Grove); endogenous in cells; host or cells: primary human monocyte-derived macrophages (HMDM) differentiated from CD14+ monocytes of donor buffy coat
T1 sequence (Q16581 1-482): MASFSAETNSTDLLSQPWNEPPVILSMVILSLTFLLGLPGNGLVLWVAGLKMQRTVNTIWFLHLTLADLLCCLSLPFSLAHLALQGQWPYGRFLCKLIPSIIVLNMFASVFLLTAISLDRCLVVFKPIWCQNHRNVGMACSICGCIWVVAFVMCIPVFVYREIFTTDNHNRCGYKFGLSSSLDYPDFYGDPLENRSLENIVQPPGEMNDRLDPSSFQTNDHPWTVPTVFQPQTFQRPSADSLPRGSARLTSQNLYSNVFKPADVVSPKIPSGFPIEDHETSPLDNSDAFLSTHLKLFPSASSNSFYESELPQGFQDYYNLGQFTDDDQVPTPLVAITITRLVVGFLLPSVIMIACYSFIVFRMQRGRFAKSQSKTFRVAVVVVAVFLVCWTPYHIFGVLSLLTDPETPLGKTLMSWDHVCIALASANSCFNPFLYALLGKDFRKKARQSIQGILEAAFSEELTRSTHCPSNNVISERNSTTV
Experimental: Harvested HMDM cells were washed with 0.9% NaCl solution by centrifugation at 2500 rpm for 5 min, followed by resuspension of the cell pellet with complete media. Cells were seeded at 5×10^4 cells/well in a 96-well black-wall, clear bottom plate (DKSH, Zurich), and left overnight to adhere at 37° C. On the day of the experiment, supernatant was removed and cells were incubated in dye loading buffer (Hank's Balanced Salt Solution (HBSS) with 4 μM Fluo-3, 25 μL pluronic acid, 1% fetal bovine serum (FBS) and 2.5 mM probenecid) for one hour at 37° C. Cells were then washed twice with HBSS and transferred to a Fluorostar spectrofluorimeter (BMG, Durham N.C.) for oxazole compound injection and fluorescence measurements.
Various compounds were examined in the calcium mobilization assay for agonist or antagonist activity compared to hC3a and to the known antagonist SB290157.
HMDMs were seeded into black-wall, clear bottom 96-well plates (Corning Incorporated, NY) at 50,000 cells/well and left to incubate at 37° C. with 5% CO2 overnight for cells to adhere. The medium was removed before being washed with the assay buffer (1×HBSS, 20 mM HEPES, 2.5 mM probenecid, pH 7.4). To each well was added 100 μL of dye-loading buffer made up of 12 mL calcium buffer, 1% FBS, 25 μL of Fluo-3 dye (final concentration of 4 μM) and 25 μL of 20% pluronic acid. The plate was covered in aluminium foil to protect the light-sensitive dye and left to incubate at 37° C. for 1 h. The dye-loading buffer was removed before the cells were washed with the assay buffer to remove excess loading dye. To each well was added 50 μL of fresh assay buffer before the plate was loaded into a FLIPR (Fluorescent Imaging Plate Reader) that can inject treatments and measure any calcium release. To generate agonist plots, calcium release was monitored for 300 seconds. To generate antagonist plots, calcium release was recorded for 900 seconds, which at the same time would allow incubation for the antagonists. After the initial incubation period, an agonist would be added and the response was recorded for 300 seconds. Intracellular release of calcium was recorded via fluorescence measurements at wavelength of 485 nm for excitation and 520 nm for emission.

C3a receptor (C3aR) = target: T2, C3a receptor (C3aR) (Homo sapiens, UniProt Q16581); test: Competitive binding with [^125I]-C3a in HMDM
T2 construct: peripheral blood mononuclear cells were isolated from buffy coat (obtained from Australian Red Cross Blood Service, Kelvin Grove); endogenous in cells; host or cells: primary human monocyte-derived macrophages (HMDM) differentiated from CD14+ monocytes of donor buffy coat
T2 sequence (Q16581 1-482): T1 sequence (Q16581 1-482)
Description: For HMDM, peripheral blood mononuclear cells were isolated from buffy coat (obtained from Australian Red Cross Blood Service, Kelvin Grove) using Ficoll-paque density centrifugation (GE Healthcare Bio-Science, Uppsala, Sweden). CD^14+ monocytes were positively selected using CD^14+ MACS magnetic beads (Miltenyi Biotech, Auburn, Calif., USA). […] Cells were harvested by gentle scraping in saline solution and replated for use on Day 7. […] Unbound radioactivity was removed by filtration through glass microfiber filters GF/B (Whatman Iner. […] The filter was washed 3 times with cold buffer (50 mM Tris-HCl) pH 7.4. […] The −log IC50 for each compound was calculated for separate experiments and express as an arithmetic mean standard error (SE). IC50 values were expressed as a geometric mean.

[1] = Table 9, Ca^2+ mobilization, HMDM, read-out: EC50
[2] = Table 12, read-out: Apparent Agonist Activity EC50
[3] = Table 6, competitive binding with [^125I]-C3a, HMDM, read-out: IC50 (converted)
[4] = Table 6, competitive binding with [^125I]-C3a, HMDM, read-out: pIC50 ± SEM (converted)
[5] = Table 8, HMDM, read-out: Receptor Binding Affinity ^125I IC50
[6] = Table 12, read-out: Receptor Binding Affinity IC50
[7] = Table 14, binding affinity for C3aR on HMDM
[8] = Table 14, binding affinity for C3aR on HMDM, read-out: -Log IC50 (converted)
[9] = Table 10, HMDM, read-out: Agonist Activity EC50

Row | Compound | EC50 (C3aR; [1]) [nM] | IC50 (C3aR; Table 10, HMDM) [nM] | IC50 (C3a receptor (C3aR); [3]) [nM] | IC50 (C3a receptor (C3aR); [5]) [nM] | other results
1 | Cc1nc(C(c2ccccc2)c2ccccc2)sc1C(=O)N[C@@H](CCCNC(=N)N)C(=O)O [Compound 59, 2-Diphenylmethyl-4-methyl thiazole-5-carboxyl-Arg-OH] | 74800 | 1000 | 38 | 38 | EC50 (C3aR; [2]): 74800 nM; IC50 (C3a receptor (C3aR); [4]): 91.2 nM; IC50 (C3a receptor (C3aR); [6]): 91 nM; IC50 (C3a receptor (C3aR); [8]): 12.6 nM
2 | N=C(N)NCCC[C@H](NC(=O)c1ccc(C(c2ccccc2)c2ccccc2)s1)C(=O)O [Compound 60, 5-Diphenylmethyl-thiophene-2-carboxyl-Arg-OH] |  | 70 |  | 140 | EC50 (C3aR; [9]): > 100000 nM; IC50 (C3a receptor (C3aR); [8]): 63.1 nM
3 | N=C(N)NCCC[C@H](NC(=O)c1nc(C(c2ccccc2)c2ccccc2)no1)C(=O)O [Compound 67, 3-Diphenylmethyl-1-oxa-2,4-diazole-5-carboxyl-Arginine-OH] |  | 1300 |  | 11 | -Log IC50 (C3a receptor (C3aR); [7]): 7.9
4 | N=C(N)NCCC[C@H](NC(=O)c1noc(C(c2ccccc2)c2ccccc2)n1)C(=O)O [Compound 68, 5-Diphenylmethyl-1-oxa-2,4-diazole-3-carboxyl-Arginine-OH] |  | 1200 |  | 447 | 
5 | Cc1[nH]c([C@H](CC(C)C)NC(=O)c2c[nH]c3ccccc23)nc1C(=O)N[C@@H](CCCNC(=N)N)C(=O)O [Compound 79, 3-Indole carboxylic acid-Leucine-5-methyl-imidazole-Arginine-OH] | 15 |  | 12 |  | 
6 | Cc1[nH]c([C@H](CC(C)C)NC(=O)OC(C)(C)C)nc1C(=O)N[C@@H](CCCNC(=N)N)C(=O)O [Compound 80, Boc-Leucine-imidazole-Arginine-OH] | 120 |  | 38 |  | 

Continued, in another order:

Row | EC50 (C3aR; [1]) [nM] | IC50 (C3aR; Table 10, HMDM) [nM] | IC50 (C3a receptor (C3aR); [3]) [nM] | IC50 (C3a receptor (C3aR); [5]) [nM] | Compound | other results
7 | 6.6 | 20 | 37 | 1 | N=C(N)NCCC[C@H](NC(=O)c1coc(C(c2ccccc2)c2ccccc2)n1)C(=O)O [Compound 56, 2-Diphenylmethyl-oxazole-4-carboxyl-Arg-OH] | Agonist Activity (in words) (C3aR; Table 10, HMDM): partial agonist; EC50 (C3aR; [2]): 6.6 nM; IC50 (C3a receptor (C3aR); [4]): 37.2 nM; IC50 (C3a receptor (C3aR); Table 12, read-out: Receptor Binding Affinity pIC50 ± SE (converted)): 37.2 nM
8 |  | 2900 | 606 | 12 | Cc1nc(C(c2ccccc2)c2ccccc2)oc1C(=O)N[C@@H](CCCNC(=N)N)C(=O)O [Compound 58, 2-Diphenylmethyl-4-methyl oxazole-5-carboxyl-Arg-OH] | Apparent Agonist Activity pEC50 ± SE (symbol) (C3aR; Table 12): φ (compound showed no agonist activity up to 100 μM.); IC50 (C3a receptor (C3aR); [4]): 603 nM; IC50 (C3a receptor (C3aR); [6]): 606 nM; -Log IC50 (C3a receptor (C3aR); [7]): 7.0
9 |  | 30 |  | 740 | Cc1oc(C(c2ccccc2)c2ccccc2)nc1C(=O)N[C@@H](CCCNC(=N)N)C(=O)O [Compound 61, 2-Diphenylmethyl-5-methyl oxazole-4-carboxyl-Arg-OH] | Agonist Activity (in words) (C3aR; Table 10, HMDM): partial agonist; -Log IC50 (C3a receptor (C3aR); [7]): 8.0
10 |  | 600 |  | 46 | N=C(N)NCCC[C@H](NC(=O)c1nc(C(c2ccccc2)c2ccccc2)[nH]c1-c1ccccc1)C(=O)O [Compound 62, 2-Diphenylmethyl-4-phenyl imidazole-5-carboxyl-Arg-OH] | EC50 (C3aR; [9]): > 100000 nM
11 |  | 67000 |  | 3370 | N=C(N)NCCC[C@H](NC(=O)c1sc(C(c2ccccc2)c2ccccc2)nc1-c1ccccc1)C(=O)O [Compound 65, 2-Diphenylmethyl-4-phenyl thiazole-5-carboxyl-Arg-OH] | 
12 |  | 2000 |  | 123 | N=C(N)NCCC[C@H](NC(=O)c1oc(C(c2ccccc2)c2ccccc2)nc1-c1ccccc1)C(=O)O [Compound 66, 2-Diphenylmethyl-4-phenyl oxazole-5-carboxyl-Arg-OH] | 
13 |  | 24000 |  | 2580 | N=C(N)NCCC[C@H](NC(=O)c1nnc(C(c2ccccc2)c2ccccc2)o1)C(=O)O [Compound 69, 2-Diphenylmethyl-1-oxa-3,4-diazole-5-carboxyl-Arginine-OH] | 
